Results published in paper PMC10561253, “2-NBDG Uptake in Gossypium hirsutum in vitro ovules: exploring tissue-specific accumulation and its impact on hexokinase-mediated glycolysis regulation” (Frontiers in Plant Science, 2023).

Test system: T1, GhHxk9
T1 construct: codon-optimized synthetic gene, E. coli BL21(DE3), pET-28-14His-bdSumo, tag cut off by bdSENP1, tagless wild-type; 51 kDa; printed residues: L398-K404 TLKDGEK, S132-R141 SEGLHFSPDR
Experiment: coupled assay with E. coli glucose-6-phosphate dehydrogenase, absorbance at […] nm
Type: biochemical, Gossypium hirsutum
Details: 1 mM ATP, 10 mM MgCl2, 1 mM NADP+, 100 mM Tris pH 7.5, 30 °C; read-out: apparent Km

SMILES: OC[C@H]1OC(O)[C@H](O)[C@@H](O)[C@@H]1O (stereo partly drawn) [D-glucose]
- Km: 37 ± 19.8 µM
